Key:
[1] = In vivo pharmacokinetic (PK) profile following intramuscular (IM) dosing in rats; details: rat; for plasma levels at 30 mins compared with undeuterated DMT: […] (as fumarate) IM dose; for Cmax compared with DMT (SPL026): following IM dosing, p=0.005
[2] = pH-solubility in 0.5M Britton Robinson buffer at 25° C.; format: physicochemical; details: aqueous buffer, thermodynamic from solid, pH between about 4 and about 6
Procedure: Prior to adding N,N-dimethyltryptamine, a quantity of NaOH was added to the BR buffer as required to ensure the required pH. The total volume of BR buffer plus required amount of NaOH was 5 ml for each pH tested (pH 4, 5, 6, 7, 8, 9 & 10).

[3] = according to the Human Metabolome Database (HMDB); cited from earlier work

Row | Compound | plasma levels at 30 mins compared with undeuterated DMT [1] | Cmax compared with DMT (SPL026) [1] | solubility [2] | stability in solution [3] | increase in AUC0-inf at 10 mg/kg dose compared to […] dose level ([1]; IM)
1 | O=C(O)/C=C/C(=O)O.[2H]C([2H])([2H])N(C([2H])([2H])[2H])C([2H])([2H])Cc1c[nH]c2ccccc12 [SPL028viii, α,α,bis-deuterio-N,N-hexadeuterio-dimethyltryptamine fumarate salt] | significantly higher plasma levels | significantly higher | – | – | –
2 | CN(C)CCc1c[nH]c2ccccc12 [N,N-Dimethyltryptamine, N,N-dimethyltryptamine] | – | – | ≥ 90 mg/mL | degrades relatively quickly in solution | –
3 | O=C(O)/C=C/C(=O)O.[2H]C([2H])(Cc1c[nH]c2ccccc12)N(C)C [SPL028i, α,α,-bis-deuterium-N,N-dimethyltryptamine fumarate salt] | significantly higher plasma levels | significantly higher | – | – | 237%

From US12318477B2, “Injectable and inhalable formulations” (CYBIN UK LTD, priority 2021, dated 2025)
